Starred links: 1 amine or outer side, 2 acyl side, 3 side chain; linkers in the order of their positions; H or OH if unused. Positions of bridges follow the written chain, without caps; N, C: chain ends. Non-standard residues stand in square brackets, D forms with d. Residues, ends and D or L forms follow the SMILES beside them. Groups on a side chain read outwards from the residue. *: point of attachment. Trp(1-Me) = Cn1cc(C[C@H](N)C(=O)O)c2ccccc21; C18 diacid = O=C(O)CCCCCCCCCCCCCCCCC(=O)*; γGlu = O=C(O)[C@H](CCC(=O)[*:2])N[*:1]; 1Nal = N[C@@H](Cc1cccc2ccccc12)C(=O)O; 2Nal = N[C@@H](Cc1ccc2ccccc2c1)C(=O)O; Sar = CNCC(=O)O
What was measured:
[1] = system: classical complement pathway; experiment: In vitro haemolysis assay (inhibition of classical complement pathway); assay type: cell-based, human; conditions: Table 3; human serum, sensitized sheep red blood cells; read-out: IC50[nM], in vitro analysis of inhibition of hemolysis
Outline: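 Serially diluted compound (9 points) was preincubated 15 min at room temperature with diluted human serum, titrated per batch to give 70-90% maximal haemolysis, in Tris/casein buffer pH 7.4 with Mg2+/Ca2+. Antibody-sensitized sheep erythrocytes were then added for 30 min at 37° C, and the reaction was stopped with EDTA. Haemolysis was read at A405, with IC50 from 4PL fit.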

[2] = Solubility test at 10 mg/mL (visual inspection and light scattering); assay type: physicochemical; conditions: for Solubility, Condition 1 Acetate pH 4: 10 mg/mL compound in 100 mM acetate pH 4; for Solubility, Condition 2 Acetate pH 5: 10 mg/mL compound in 100 mM acetate pH 5; for Solubility, Condition 3 Phosphate pH 6: 10 mg/mL compound in 100 mM phosphate pH 6; for Solubility, Condition 4 Phosphate pH 7: 10 mg/mL compound in 100 mM phosphate pH 7; for Solubility, Condition 5 Phosphate pH 7.5: 10 mg/mL compound in 100 mM phosphate pH 7.5

Row | SMILES | IC50 [1] [nM] | Solubility, Condition 1 Acetate pH 4 [2] | Solubility, Condition 2 Acetate pH 5 [2] | Solubility, Condition 3 Phosphate pH 6 [2] | Solubility, Condition 4 Phosphate pH 7 [2] | Solubility, Condition 5 Phosphate pH 7.5 [2]
1 | CC[C@H](C)[C@@H]1NC(=O)[C@@H](NC(=O)[C@H](Cc2ccccc2)NC(C)=O)CSSC[C@@H](C(=O)N[C@H](C(=O)NCC(=O)N[C@@H](C)C(=O)N[C@@H](CCC(=O)O)C(=O)N[C@@H](CO)C(N)=O)[C@@H](C)O)NC(=O)[C@H](CCCNC(=N)N)NC(=O)[C@H](Cc2c[nH]cn2)NC(=O)[C@H](CCC(=O)O)NC(=O)CNC(=O)[C@H](Cc2c[nH]c3ccccc23)NC(=O)[C@H](CC(=O)O)NC(=O)[C@H](CCC(N)=O)NC(=O)[C@H](Cc2cccc3ccccc23)NC1=O [Compound 63] (Ac-FCI[1Nal]QDWGEHRCTGAES-NH2; disulfide 2-12) | < 100 | − (denotes lack of solubility at the given condition, as UV absorbance at 340 nm exceeds 0.1 AU and/or it is visibly turbid or contains particles.) | − (denotes lack of solubility at the given condition, as UV absorbance at 340 nm exceeds 0.1 AU and/or it is visibly turbid or contains particles.) | + (denotes solubility at the given condition, as determined by UV absorbance being less than 0.1 AU at 340 nm and the sample being clear when manually inspected.) | + (denotes solubility at the given condition, as determined by UV absorbance being less than 0.1 AU at 340 nm and the sample being clear when manually inspected.) | + (denotes solubility at the given condition, as determined by UV absorbance being less than 0.1 AU at 340 nm and the sample being clear when manually inspected.)
2 | CC[C@H](C)[C@H](NC(=O)[C@H](C)NC(=O)[C@H](CO)NC(=O)CNC(=O)[C@H](CCC(=O)O)NC(C)=O)C(=O)N[C@H]1CSSC[C@@H](C(=O)N(C)CC(=O)N[C@@H](CCC(=O)O)C(N)=O)NC(=O)[C@H](CCCNC(=N)N)NC(=O)[C@H](Cc2c[nH]cn2)NC(=O)[C@H](CCC(=O)O)NC(=O)CNC(=O)[C@H](Cc2c[nH]c3ccccc23)NC(=O)[C@H](CC(=O)O)NC(=O)[C@H](CCC(N)=O)NC(=O)[C@H](Cc2ccc3ccccc3c2)NC(=O)[C@H]([C@@H](C)CC)NC1=O [Compound 50] (Ac-EGSAICI[2Nal]QDWGEHRC[Sar]E-NH2; disulfide 6-16) | < 100 | − (denotes lack of solubility at the given condition, as UV absorbance at 340 nm exceeds 0.1 AU and/or it is visibly turbid or contains particles.) | − (denotes lack of solubility at the given condition, as UV absorbance at 340 nm exceeds 0.1 AU and/or it is visibly turbid or contains particles.) | + (denotes solubility at the given condition, as determined by UV absorbance being less than 0.1 AU at 340 nm and the sample being clear when manually inspected.) | + (denotes solubility at the given condition, as determined by UV absorbance being less than 0.1 AU at 340 nm and the sample being clear when manually inspected.) | + (denotes solubility at the given condition, as determined by UV absorbance being less than 0.1 AU at 340 nm and the sample being clear when manually inspected.)
3 | CC[C@H](C)[C@@H]1NC(=O)[C@@H](NC(=O)[C@H](Cc2ccc(O)cc2)NC(C)=O)CSSC[C@@H](C(=O)N[C@H](C(=O)NCC(=O)N[C@@H](C)C(=O)N[C@@H](CCC(=O)O)C(=O)N[C@@H](CO)C(N)=O)[C@@H](C)O)NC(=O)[C@H](CCCNC(=N)N)NC(=O)[C@H](Cc2c[nH]cn2)NC(=O)[C@H](CCC(=O)O)NC(=O)CNC(=O)[C@H](Cc2c[nH]c3ccccc23)NC(=O)[C@H](CC(=O)O)NC(=O)[C@H](CCC(N)=O)NC(=O)[C@H](Cc2cn(C)c3ccccc23)NC1=O [Compound 62] (Ac-YCI[Trp(1-Me)]QDWGEHRCTGAES-NH2; disulfide 2-12) | < 100 | − (denotes lack of solubility at the given condition, as UV absorbance at 340 nm exceeds 0.1 AU and/or it is visibly turbid or contains particles.) | − (denotes lack of solubility at the given condition, as UV absorbance at 340 nm exceeds 0.1 AU and/or it is visibly turbid or contains particles.) | + (denotes solubility at the given condition, as determined by UV absorbance being less than 0.1 AU at 340 nm and the sample being clear when manually inspected.) | + (denotes solubility at the given condition, as determined by UV absorbance being less than 0.1 AU at 340 nm and the sample being clear when manually inspected.) | + (denotes solubility at the given condition, as determined by UV absorbance being less than 0.1 AU at 340 nm and the sample being clear when manually inspected.)
4 | CC[C@H](C)[C@H](NC(C)=O)C(=O)N[C@H]1CSSC[C@@H](C(=O)N[C@H](C(=O)N[C@@H](CCC(=O)O)C(=O)N[C@@H](C)C(N)=O)[C@@H](C)O)NC(=O)[C@H](CCCNC(=N)N)NC(=O)[C@H](Cc2c[nH]cn2)NC(=O)[C@H](CCC(=O)O)NC(=O)CNC(=O)[C@H](Cc2c[nH]c3ccccc23)NC(=O)[C@H](CC(=O)O)NC(=O)[C@H](CCC(N)=O)NC(=O)[C@H](Cc2c[nH]c3ccccc23)NC(=O)[C@H]([C@@H](C)CC)NC1=O [Compound 25] (Ac-ICIWQDWGEHRCTEA-NH2; disulfide 2-12) | < 100 | + (denotes solubility at the given condition, as determined by UV absorbance being less than 0.1 AU at 340 nm and the sample being clear when manually inspected.) | − (denotes lack of solubility at the given condition, as UV absorbance at 340 nm exceeds 0.1 AU and/or it is visibly turbid or contains particles.) | − (denotes lack of solubility at the given condition, as UV absorbance at 340 nm exceeds 0.1 AU and/or it is visibly turbid or contains particles.) | + (denotes solubility at the given condition, as determined by UV absorbance being less than 0.1 AU at 340 nm and the sample being clear when manually inspected.) | + (denotes solubility at the given condition, as determined by UV absorbance being less than 0.1 AU at 340 nm and the sample being clear when manually inspected.)
5 | CC[C@H](C)[C@@H]1NC(=O)[C@@H](NC(=O)[C@H](Cc2ccc(O)cc2)NC(=O)[C@H](C)NC(=O)[C@H](CO)NC(=O)CNC(=O)[C@H](CCC(=O)O)NC(C)=O)CSSC[C@@H](C(=O)N(C)CC(=O)N[C@@H](CCC(=O)O)C(=O)NCC(=O)N[C@@H](CCC(=O)O)C(=O)N[C@@H](CCCCNC(=O)CC[C@H](NC(=O)CNC(=O)CC[C@H](NC(=O)CCCCCCCCCCCCCCCCC(=O)O)C(=O)O)C(=O)O)C(N)=O)NC(=O)[C@H](CCCNC(=N)N)NC(=O)[C@H](Cc2c[nH]cn2)NC(=O)[C@H](CCC(=O)O)NC(=O)CNC(=O)[C@H](Cc2c[nH]c3ccccc23)NC(=O)[C@H](CC(=O)O)NC(=O)[C@H](CCC(N)=O)NC(=O)[C@H](Cc2cn(C)c3ccccc23)NC1=O [Compound 109] (Ac-EGSAYCI[Trp(1-Me)]QDWGEHRC[Sar]EGEK([γGlu-Gly-γGlu-C18 diacid])-NH2; disulfide 6-16) | < 250 | − (denotes lack of solubility at the given condition, as UV absorbance at 340 nm exceeds 0.1 AU and/or it is visibly turbid or contains particles.) | + (denotes solubility at the given condition, as determined by UV absorbance being less than 0.1 AU at 340 nm and the sample being clear when manually inspected.) | + (denotes solubility at the given condition, as determined by UV absorbance being less than 0.1 AU at 340 nm and the sample being clear when manually inspected.) | + (denotes solubility at the given condition, as determined by UV absorbance being less than 0.1 AU at 340 nm and the sample being clear when manually inspected.) | + (denotes solubility at the given condition, as determined by UV absorbance being less than 0.1 AU at 340 nm and the sample being clear when manually inspected.)
6 | CC[C@H](C)[C@@H]1NC(=O)[C@@H](NC(=O)[C@@H](NC(=O)[C@H](CCC(=O)O)NC(=O)[C@H](CO)NC(C)=O)[C@@H](C)CC)CSSC[C@@H](C(=O)N[C@H](C(=O)N[C@@H](CCC(=O)O)C(=O)N[C@@H](C)C(N)=O)[C@@H](C)O)NC(=O)[C@H](CCCNC(=N)N)NC(=O)[C@H](Cc2c[nH]cn2)NC(=O)[C@H](CCC(=O)O)NC(=O)CNC(=O)[C@H](Cc2c[nH]c3ccccc23)NC(=O)[C@H](CC(=O)O)NC(=O)[C@H](CCC(N)=O)NC(=O)[C@H](Cc2c[nH]c3ccccc23)NC1=O [Compound 32] (Ac-SEICIWQDWGEHRCTEA-NH2; disulfide 4-14) | < 100 | − (denotes lack of solubility at the given condition, as UV absorbance at 340 nm exceeds 0.1 AU and/or it is visibly turbid or contains particles.) | − (denotes lack of solubility at the given condition, as UV absorbance at 340 nm exceeds 0.1 AU and/or it is visibly turbid or contains particles.) | − (denotes lack of solubility at the given condition, as UV absorbance at 340 nm exceeds 0.1 AU and/or it is visibly turbid or contains particles.) | + (denotes solubility at the given condition, as determined by UV absorbance being less than 0.1 AU at 340 nm and the sample being clear when manually inspected.) | + (denotes solubility at the given condition, as determined by UV absorbance being less than 0.1 AU at 340 nm and the sample being clear when manually inspected.)
